In patent US20240124444A1 (Celgene Corporation, priority 2020, published 2024):
Read-outs that look alike come from different tables or passages of the source.

System: C. parvum strain UGA1
Assay: C. parvum growth inhibition assay (Nluc luminescence in HCT-8 cells)
Format: cell-based, Cryptosporidium parvum
Conditions: Cryptosporidium parvum; for inhibition at 1 µM / inhibition at 10 µM: HCT-8; for inhibition at 1 µM: read-out: % inh @ 1 uM C. parvum; for inhibition at 10 µM: read-out: % inh @ 10 uM C. parvum; for EC50: HCT-8, 48 h, C. parvum growth inhibition in HCT-8 cells, 48 hours, 6 concentrations 10-0.04 μM
[1] = single point inhibition at 1 uM
[2] = single point inhibition at 10 uM
[3] = single point inhibition @ 10 uM

With `C[C@H]1C[C@@H]1C(=O)Nc1cc2[nH]c(-c3ccnc(C(F)(F)F)n3)cc2cn1` (stereo in doubt) [Example 262, (1S,2S)-2-methyl-N-(2-(2-(trifluoromethyl)pyrimidin-4-yl)-1H-pyrrolo[3,2-c]pyridin-6-yl)cyclopropanecarboxamide] as the molecule, how does the inhibition at 1 µM [1] read?
Its inhibition at 1 µM is 0 to 33%.

What about the inhibition at 10 µM [2] of the same molecule?
The inhibition at 10 µM was 0 to 33%.

What does the source list for `Cc1cc(-c2cc3cnc(NC(=O)C4CC4)cc3[nH]2)ccc1F` [Example 340, N-(2-(4-fluoro-3-methylphenyl)-1H-pyrrolo[3,2-c]pyridin-6-yl)cyclopropanecarboxamide]?
inhibition at 1 µM [1]: 0 to 33%; inhibition at 10 µM [2]: 0 to 33%

Which results are given for `COc1nccc(-c2cc3cnc(NC(=O)c4ccc(OC5CCOCC5)cc4)cc3n2C)n1` [Example 188, N-(2-(2-methoxypyrimidin-4-yl)-1-methyl-1H-pyrrolo[3,2-c]pyridin-6-yl)-4-(tetrahydro-2H-pyran-4-yloxy)benzamide]?
inhibition at 1 µM (single point inhibition @ 1 uM): 0 to 33%; inhibition at 10 µM [3]: 67 to 100%

`FC(F)(F)c1c[nH]c2cc(NC3CCOCC3)ncc12` [Example 376, N-(tetrahydro-2H-pyran-4-yl)-3-(trifluoromethyl)-1H-pyrrolo[3,2-c]pyridin-6-amine] was tested. Which EC50 did it give?
The EC50 was > 1 µM.

For `Cc1cn(C)nc1C(=O)Nc1cc2[nH]c(-c3ccncc3)cc2cn1` [Example 281, 1,4-dimethyl-N-(2-(pyridin-4-yl)-1H-pyrrolo[3,2-c]pyridin-6-yl)-1H-pyrazole-3-carboxamide], which inhibition at 1 µM [1] is on record?
The inhibition at 1 µM was 0 to 33%.

And the inhibition at 10 µM [2]?
The inhibition at 10 µM was 0 to 33%.

With `COC1CCC(OC(=O)Nc2cc3[nH]c(-c4ccnc(C)c4)cc3cn2)CC1` (stereo not drawn) [Example 206, 4-methoxycyclohexyl 2-(2-methylpyridin-4-yl)-1H-pyrrolo[3,2-c]pyridin-6-ylcarbamate] as the molecule, how does the inhibition at 1 µM [1] read?
The inhibition at 1 µM was 0 to 33%.

What about the inhibition at 10 µM [2] of the same molecule?
Its inhibition at 10 µM is 67 to 100%.

For `Cc1cc(-c2cc3cnc(Nc4cccc(-c5nc[nH]n5)c4)cc3[nH]2)ccn1` [Example 66, N-(3-(1H-1,2,4-triazol-3-yl)phenyl)-2-(2-methylpyridin-4-yl)-1H-pyrrolo[3,2-c]pyridin-6-amine], which EC50 is on record?
The EC50 was > 1 µM.

And the inhibition at 1 µM (single point inhibition @ 1 uM)?
The inhibition at 1 µM was 67 to 100%.

What about the inhibition at 10 µM [3] of the same molecule?
The inhibition at 10 µM was 67 to 100%.

With `Cn1c(-c2ccccn2)cc2cnc(NC(=O)C3CC3)cc21` [Example 129, N-(1-methyl-2-(pyridin-2-yl)-1H-pyrrolo[3,2-c]pyridin-6-yl)cyclopropanecarboxamide] as the molecule, how does the EC50 read?
The EC50 was > 1 µM.

Which EC50 does the source give for `Cc1cc(-c2cc3cnc(N(C)C4CCOCC4)cc3[nH]2)ccn1` [Example 114, N-methyl-2-(2-methylpyridin-4-yl)-N-(tetrahydro-2H-pyran-4-yl)-1H-pyrrolo[3,2-c]pyridin-6-amine] here?
The EC50 was > 1 µM.

For `CCOc1nccc(-c2cc3cnc(NC(=O)c4ccc(OC)c(OC)c4)cc3[nH]2)n1` [Example 321, N-(2-(2-ethoxypyrimidin-4-yl)-1H-pyrrolo[3,2-c]pyridin-6-yl)-3,4-dimethoxybenzamide], which inhibition at 1 µM [1] is on record?
Its inhibition at 1 µM is 0 to 33%.

And the inhibition at 10 µM [2]?
Its inhibition at 10 µM is 0 to 33%.

For `COc1nccc(-c2cc3cnc(NC(=O)c4cnn(C)c4)cc3n2C)n1` [Example 256, N-(2-(2-methoxypyrimidin-4-yl)-1-methyl-1H-pyrrolo[3,2-c]pyridin-6-yl)-1-methyl-1H-pyrazole-4-carboxamide], which inhibition at 1 µM [1] is on record?
The inhibition at 1 µM was 0 to 33%.

And the inhibition at 10 µM [2]?
The inhibition at 10 µM was 0 to 33%.

How did the EC50 turn out when `Cn1c(-c2cc(NCC(F)(F)F)ncn2)cc2cnc(NC3CCOCC3)cc21` [Example 365] was run?
Its EC50 is > 1 µM.

For `Cn1c(-c2ccnc(NCC(F)(F)F)n2)cc2cnc(NC3CCOCC3)cc21` [Example 358, 1-methyl-N-(tetrahydro-2H-pyran-4-yl)-2-(2-(2,2,2-trifluoroethylamino)pyrimidin-4-yl)-1H-pyrrolo[3,2-c]pyridin-6-amine], which EC50 is on record?
Its EC50 is < 0.5 µM.

Which inhibition at 1 µM [1] does the source give for `Cc1cc(-c2cc3cnc(NC(=O)c4cc(C(F)F)nn4C)cc3[nH]2)ccn1` [Example 218, 3-(difluoromethyl)-1-methyl-N-(2-(2-methylpyridin-4-yl)-1H-pyrrolo[3,2-c]pyridin-6-yl)-1H-pyrazole-5-carboxamide] here?
The inhibition at 1 µM was 0 to 33%.

And the inhibition at 10 µM [2]?
The inhibition at 10 µM was 33 to 66%.

How did the inhibition at 1 µM (single point inhibition @ 1 uM) turn out when `Cn1cc(C(=O)Nc2cc3c(cn2)cc(-c2ccnc(NCC(F)F)n2)n3C)cn1` [Example 144, N-(2-(2-(2,2-difluroethylamino)pyrimidin-4-yl)-1-methyl-1H-pyrrolo[3,2-c]pyridin-6-yl)-1-methyl-1H-pyrazole-4-carboxmaide] was run?
Its inhibition at 1 µM is 0 to 33%.

And the inhibition at 10 µM [3]?
Its inhibition at 10 µM is 67 to 100%.

What does the source list for `Cc1cc(-c2cc3cnc(NC(=O)[C@H]4C[C@H](O)C4)cc3[nH]2)ccn1` [Example 187, (1r,3r)-3-hydroxy-N-(2-(2-methylpyridin-4-yl)-1H-pyrrolo[3,2-c]pyridin-6-yl)cyclobutanecarboxamide]?
inhibition at 1 µM (single point inhibition @ 1 uM): 33 to 66%; inhibition at 10 µM [3]: 67 to 100%

What does the source list for `CC(C)C(=O)Nc1cc2[nH]c(-c3ccncc3)cc2cn1` [Example 78, N-(2-(pyridin-4-yl)-1H-pyrrolo[3,2-c]pyridin-6-yl)isobutyramide]?
EC50: > 1 µM; inhibition at 1 µM (single point inhibition @ 1 uM): 33 to 66%; inhibition at 10 µM [3]: 67 to 100%

Which results are given for `Cn1cc(C(=O)Nc2cc3[nH]c(-c4cnn(C)c4)cc3cn2)cn1` [Example 331, 1-methyl-N-(2-(1-methyl-1H-pyrazol-4-yl)-1H-pyrrolo[3,2-c]pyridin-6-yl)-1H-pyrazole-4-carboxamide]?
inhibition at 1 µM [1]: 0 to 33%; inhibition at 10 µM [2]: 0 to 33%

With `Cc1cc(-c2cc3cnc(NCC4CC4)cc3[nH]2)ccn1` [Example 67, N-(cyclopropylmethyl)-2-(2-methylpyridin-4-yl)-1H-pyrrolo[3,2-c]pyridin-6-amine] as the molecule, how does the EC50 read?
Its EC50 is > 1 µM.

Which results are given for `Cc1cc2cnc(NC(=O)C3CC3)cc2[nH]1` [Example 327, N-(2-methyl-1H-pyrrolo[3,2-c]pyridin-6-yl)cyclopropanecarboxamide]?
inhibition at 1 µM [1]: 0 to 33%; inhibition at 10 µM [2]: 0 to 33%

`CO[C@H]1C[C@H](C(=O)Nc2cc3[nH]c(-c4ccnc(C)c4)cc3cn2)C1` [Example 161, (1r,3r)-3-methoxy-N-(2-(2-methylpyridin-4-yl)-1H-pyrrolo[3,2-c]pyridin-6-yl)cyclobutanecarboxamide] was tested. Which inhibition at 1 µM (single point inhibition @ 1 uM) did it give?
Its inhibition at 1 µM is 0 to 33%.

What about the inhibition at 10 µM [3] of the same molecule?
Its inhibition at 10 µM is 67 to 100%.

Which results are given for `COc1nccc(-c2cc3cnc(NC(=O)[C@H]4C[C@@H](O)C4)cc3[nH]2)n1` [Example 167, (1s,3s)-3-hydroxy-N-(2-(2-methoxypyrimidin-4-yl)-1H-pyrrolo[3,2-c]pyridin-6-yl)cyclobutanecarboxamide]?
inhibition at 1 µM (single point inhibition @ 1 uM): 33 to 66%; inhibition at 10 µM [3]: 67 to 100%

`Cn1c(-c2ccncc2)cc2cnc(Nc3cnn(C4CCOCC4)c3)cc21` [Example 138, 1-methyl-2-(pyridin-4-yl)-N-(1-(tetrahydro-2H-pyran-4-yl)-1H-pyrazol-4-yl)-1H-pyrrolo[3,2-c]pyridin-6-amine] was tested. Which inhibition at 1 µM (single point inhibition @ 1 uM) did it give?
The inhibition at 1 µM was 0 to 33%.

What about the inhibition at 10 µM [3] of the same molecule?
The inhibition at 10 µM was 67 to 100%.

`CC(C)CC(=O)Nc1cc2[nH]c(-c3ccncc3)cc2cn1` [Example 134, 3-methyl-N-(2-(pyridin-4-yl)-1H-pyrrolo[3,2-c]pyridin-6-yl)butanamide] was tested. Which inhibition at 1 µM (single point inhibition @ 1 uM) did it give?
Its inhibition at 1 µM is 0 to 33%.

And the inhibition at 10 µM [3]?
The inhibition at 10 µM was 67 to 100%.

`O=C(Nc1cc2[nH]c(-c3ccnc(C(F)(F)F)n3)cc2cn1)C1CC(O)C1` (stereo not drawn) [Example 247, (1s,3s)-3-hydroxy-N-(2-(2-(trifluoromethyl)pyrimidin-4-yl)-1H-pyrrolo[3,2-c]pyridin-6-yl)cyclobutanecarboxamide] was tested. Which inhibition at 1 µM [1] did it give?
Its inhibition at 1 µM is 33 to 66%.

And the inhibition at 10 µM [2]?
The inhibition at 10 µM was 0 to 33%.

For `N#Cc1cc2cnc(Nc3cccc(-c4nc[nH]n4)c3)cc2[nH]1` [Example 145, 6-(3-(1H-1,2,4-triazol-3-yl)phenylamino)-1H-pyrrolo[3,2-c]pyridine-2-carbonitrile], which inhibition at 1 µM (single point inhibition @ 1 uM) is on record?
Its inhibition at 1 µM is 0 to 33%.

And the inhibition at 10 µM [3]?
The inhibition at 10 µM was 67 to 100%.

With `Cc1cc(-c2cc3cnc(NC(=O)CC4COC4)cc3[nH]2)ccn1` [Example 165, N-(2-(2-methylpyridin-4-yl)-1H-pyrrolo[3,2-c]pyridin-6-yl)-2-(oxetan-3-yl)acetamide] as the molecule, how does the inhibition at 1 µM (single point inhibition @ 1 uM) read?
Its inhibition at 1 µM is 0 to 33%.

And the inhibition at 10 µM [3]?
Its inhibition at 10 µM is 67 to 100%.

Which results are given for `O=C(Nc1cc2[nH]c(C3CCOCC3)cc2cn1)C1CC1` [Example 94, N-(2-(tetrahydro-2H-pyran-4-yl)-1H-pyrrolo[3,2-c]pyridin-6-yl)cyclopropanecarboxamide]?
EC50: > 1 µM; inhibition at 1 µM (single point inhibition @ 1 uM): 0 to 33%; inhibition at 10 µM [3]: 0 to 33%

For `CN(C)C(=O)Nc1cc2[nH]c(C(F)(F)F)cc2cn1` [Example 108, 1,1-dimethyl-3-(2-(trifluoromethyl)-1H-pyrrolo[3,2-c]pyridin-6-yl)urea], which EC50 is on record?
The EC50 was > 1 µM.

How did the inhibition at 1 µM [1] turn out when `Cn1cc(C(=O)Nc2cc3[nH]c(-c4cnc(C#N)cn4)cc3cn2)cn1` [Example 303, N-(2-(5-cyanopyrazin-2-yl)-1H-pyrrolo[3,2-c]pyridin-6-yl)-1-methyl-1H-pyrazole-4-carboxamide] was run?
Its inhibition at 1 µM is 0 to 33%.

And the inhibition at 10 µM [2]?
Its inhibition at 10 µM is 0 to 33%.

With `O=C(Nc1cc2[nH]c(-c3ccnc(OCCCF)n3)cc2cn1)c1cnn(CC2CCCO2)c1` (stereo in doubt) [Example 171, (S)-N-(2-(2-(3-fluoropropoxy)pyrimidin-4-yl)-1H-pyrrolo[3,2-c]pyridin-6-yl)-1-((tetrahydrofuran-2-yl)methyl)-1H-pyrazole-4-carboxamide] as the molecule, how does the inhibition at 1 µM (single point inhibition @ 1 uM) read?
The inhibition at 1 µM was 0 to 33%.

And the inhibition at 10 µM [3]?
Its inhibition at 10 µM is 67 to 100%.

What does the source list for `N#Cc1cc2cnc(Nc3cnn(C4CCOCC4)c3)cc2[nH]1` [Example 151, 6-(1-(tetrahydro-2H-pyran-4-yl)-1H-pyrazol-4-ylamino)-1H-pyrrolo[3,2-c]pyridine-2-carbonitrile]?
inhibition at 1 µM (single point inhibition @ 1 uM): 0 to 33%; inhibition at 10 µM [3]: 67 to 100%

What does the source list for `CCOc1nccc(-c2cc3cnc(NC(=O)[C@@H]4C[C@H]4C)cc3[nH]2)n1` (stereo in doubt) [Example 153, (1R,2R)-N-(2-(2-ethoxypyrimidin-4-yl)-1H-pyrrolo[3,2-c]pyridin-6-yl)-2-methylcyclopropanecarboxamide]?
inhibition at 1 µM (single point inhibition @ 1 uM): 0 to 33%; inhibition at 10 µM [3]: 67 to 100%

With `CN(CC(F)(F)F)c1cc(-c2cc3cnc(NC4CCOCC4)cc3[nH]2)ccn1` [Example 381, 2-(2-(methyl(2,2,2-trifluoroethyl)amino)pyridin-4-yl)-N-(tetrahydro-2H-pyran-4-yl)-1H-pyrrolo[3,2-c]pyridin-6-amine] as the molecule, how does the EC50 read?
The EC50 was > 1 µM.
